# Results reported in US11571421B2, “GABAA positive allosteric modulator compounds for treatment of itch and/or dermatitis” (NeuroCycle Therapeutics, Inc., priority 2018, dated 2023).
# Where “and” joins values, the source holds several entries; their conditions need not be identical. Equal entries are not always repeated.
# Test system: Chloroquine (CQ)-Induced Itch Model in Male C57BL/6 Mice
# Assay: Chloroquine Induced Itch Model, AZD7325 (Example 2)
# Assay type: in vivo
# Procedure: Other GABAA positive allosteric modulators are predicted to have similar effects on pruritic conditions and dermatitis as PF-06372865. […] In this study, the efficacy of AZD7325 was evaluated in the Chloroquine Induced Itch Model in Male C57BL/6 Mice. […]
# AZD7325 was weighed into a clean glass container. A 5% 2-hydroxypropyl-β-cyclodextrin was added and the resulting mixture was mixed well using mild vortexing and sonicated for 15-20 minutes to provide a homogeneous suspension.
# 21 mg of chloroquine phosphate was weighed in a clean glass container. 5.2 mL PBS was added, and the resulting mixture was mixed well using mild vortexing to form the desired strength solution.
# The right-side cheek area of all the animals was shaved with animal clippers 1 day prior to the experiment. Animals were randomized into different treatment groups based on body weight to avoid variability in weights across groups one day prior to experiment. Reference formulations and chloroquine phosphate solution were prepared on the day of the experiment.
# Animals were dosed per oral with respective treatment group using a dose volume of 10 ml/kg. Times of dosing were recorded. Immediately after compound treatment, animals were kept in a empty transparent chamber (23 cm length×17 cm width) for acclimatization and observation.
# Ninety (90) minutes post compound dosing, 50-μl of chloroquine phosphate solution (a 200-μg dose) was injected intracutaneously into the animal's right cheek. Animals were returned to the same chamber for observation. Animals were observed by an observer blind to the treatment group for a period of 30 minutes post chloroquine injection. Total number of bouts of scratching directed at the ipsilateral cheek were recorded for 30 minutes.
# [1] = 0.3 mg/kg PO, individual animals
# [2] = 10 mg/kg PO, individual animals
# [3] = 30 mg/kg PO, individual animals
compound,measurement,setting,value
CCCNC(=O)c1nnc2c(-c3c(F)cccc3OC)cccc2c1N [AZD7325],"Scratching bouts (Nos.) In 30 min, 0-5 min","0.3 mg/kg PO, MEAN, N=6",1.17 Nos.
same,"Scratching bouts (Nos.) In 30 min, 5-10 min","0.3 mg/kg PO, MEAN, N=6",11.00 Nos.
same,"Scratching bouts (Nos.) In 30 min, 10-15 min","0.3 mg/kg PO, MEAN, N=6",17.17 Nos.
same,"Scratching bouts (Nos.) In 30 min, 15-20 min","0.3 mg/kg PO, MEAN, N=6",24.00 Nos.
same,"Scratching bouts (Nos.) In 30 min, 20-25min","0.3 mg/kg PO, MEAN, N=6",16.83 Nos.
same,"Scratching bouts (Nos.) In 30 min, 25-30 min","0.3 mg/kg PO, MEAN, N=6",24.00 Nos.
same,Total Scratching bouts,"0.3 mg/kg PO, MEAN, N=6",94.17 (Nos.)/30 min
same,"Scratching bouts (Nos.) In 30 min, 0-5 min",[1],0 Nos. (4×) and 5 Nos. and 2 Nos.
same,"Scratching bouts (Nos.) In 30 min, 5-10 min",[1],17 Nos. and 0 Nos. (2×) and 9 Nos. and 24 Nos. and 16 Nos.
same,"Scratching bouts (Nos.) In 30 min, 10-15 min",[1],22 Nos. and 25 Nos. and 10 Nos. and 15 Nos. and 1 Nos. and 30 Nos.
same,"Scratching bouts (Nos.) In 30 min, 15-20 min",[1],45 Nos. and 30 Nos. and 0 Nos. and 14 Nos. and 28 Nos. and 27 Nos.
same,"Scratching bouts (Nos.) In 30 min, 20-25min",[1],11 Nos. and 28 Nos. and 18 Nos. and 29 Nos. and 15 Nos. and 0 Nos.
same,"Scratching bouts (Nos.) In 30 min, 25-30 min",[1],21 Nos. and 15 Nos. (2×) and 31 Nos. and 23 Nos. and 39 Nos.
same,Total Scratching bouts,[1],116 (Nos.)/30 min and 98 (Nos.)/30 min and 73 (Nos.)/30 min and 105 (Nos.)/30 min and 61 (Nos.)/30 min and 112 (Nos.)/30 min
same,"Scratching bouts (Nos.) In 30 min, 0-5 min","1 mg/kg PO, MEAN, N=6",2.00 Nos.
same,"Scratching bouts (Nos.) In 30 min, 5-10 min","1 mg/kg PO, MEAN, N=6",10.33 Nos.
same,"Scratching bouts (Nos.) In 30 min, 10-15 min","1 mg/kg PO, MEAN, N=6",15.67 Nos.
same,"Scratching bouts (Nos.) In 30 min, 15-20 min","1 mg/kg PO, MEAN, N=6",22.33 Nos.
same,"Scratching bouts (Nos.) In 30 min, 20-25min","1 mg/kg PO, MEAN, N=6",19.17 Nos.
same,"Scratching bouts (Nos.) In 30 min, 25-30 min","1 mg/kg PO, MEAN, N=6",14.33 Nos.
same,Total Scratching bouts,"1 mg/kg PO, MEAN, N=6",83.83 (Nos.)/30 min
same,"Scratching bouts (Nos.) In 30 min, 0-5 min","1 mg/kg PO, individual animals",0 Nos. (2×) and 2 Nos. and 3 Nos. and 6 Nos. and 1 Nos.
same,"Scratching bouts (Nos.) In 30 min, 5-10 min","1 mg/kg PO, individual animals",1 Nos. and 7 Nos. and 18 Nos. and 36 Nos. and 0 Nos. (2×)
same,"Scratching bouts (Nos.) In 30 min, 10-15 min","1 mg/kg PO, individual animals",0 Nos. and 15 Nos. and 26 Nos. and 8 Nos. and 21 Nos. and 24 Nos.
same,"Scratching bouts (Nos.) In 30 min, 15-20 min","1 mg/kg PO, individual animals",30 Nos. and 24 Nos. and 14 Nos. and 7 Nos. and 44 Nos. and 15 Nos.
same,"Scratching bouts (Nos.) In 30 min, 20-25min","1 mg/kg PO, individual animals",48 Nos. and 38 Nos. and 7 Nos. and 10 Nos. and 12 Nos. and 0 Nos.
same,"Scratching bouts (Nos.) In 30 min, 25-30 min","1 mg/kg PO, individual animals",0 Nos. and 9 Nos. and 17 Nos. and 4 Nos. and 30 Nos. and 26 Nos.
same,Total Scratching bouts,"1 mg/kg PO, individual animals",79 (Nos.)/30 min and 95 (Nos.)/30 min and 85 (Nos.)/30 min and 65 (Nos.)/30 min and 113 (Nos.)/30 min and 66 (Nos.)/30 min
same,"Scratching bouts (Nos.) In 30 min, 0-5 min","3 mg/kg PO, MEAN, N=6",1.50 Nos.
same,"Scratching bouts (Nos.) In 30 min, 5-10 min","3 mg/kg PO, MEAN, N=6",7.50 Nos.
same,"Scratching bouts (Nos.) In 30 min, 10-15 min","3 mg/kg PO, MEAN, N=6",16.33 Nos.
same,"Scratching bouts (Nos.) In 30 min, 15-20 min","3 mg/kg PO, MEAN, N=6",17.17 Nos.
same,"Scratching bouts (Nos.) In 30 min, 20-25min","3 mg/kg PO, MEAN, N=6",13.33 Nos.
same,"Scratching bouts (Nos.) In 30 min, 25-30 min","3 mg/kg PO, MEAN, N=6",11.33 Nos.
same,Total Scratching bouts,"3 mg/kg PO, MEAN, N=6",67.17 (Nos.)/30 min
same,"Scratching bouts (Nos.) In 30 min, 0-5 min","3 mg/kg PO, individual animals",3 Nos. and 0 Nos. (4×) and 6 Nos.
same,"Scratching bouts (Nos.) In 30 min, 5-10 min","3 mg/kg PO, individual animals",0 Nos. (3×) and 31 Nos. and 12 Nos. and 2 Nos.
same,"Scratching bouts (Nos.) In 30 min, 10-15 min","3 mg/kg PO, individual animals",20 Nos. and 22 Nos. and 17 Nos. and 9 Nos. and 14 Nos. and 16 Nos.
same,"Scratching bouts (Nos.) In 30 min, 15-20 min","3 mg/kg PO, individual animals",18 Nos. and 5 Nos. and 35 Nos. and 26 Nos. and 19 Nos. and 0 Nos.
same,"Scratching bouts (Nos.) In 30 min, 20-25min","3 mg/kg PO, individual animals",2 Nos. and 32 Nos. and 22 Nos. and 6 Nos. and 10 Nos. and 8 Nos.
same,"Scratching bouts (Nos.) In 30 min, 25-30 min","3 mg/kg PO, individual animals",8 Nos. (2×) and 19 Nos. and 11 Nos. and 20 Nos. and 2 Nos.
same,Total Scratching bouts,"3 mg/kg PO, individual animals",51 (Nos.)/30 min and 78 (Nos.)/30 min and 119 (Nos.)/30 min and 64 (Nos.)/30 min and 63 (Nos.)/30 min and 28 (Nos.)/30 min
same,"Scratching bouts (Nos.) In 30 min, 0-5 min","10 mg/kg PO, MEAN, N=6",0.50 Nos.
same,"Scratching bouts (Nos.) In 30 min, 5-10 min","10 mg/kg PO, MEAN, N=6",6.17 Nos.
same,"Scratching bouts (Nos.) In 30 min, 10-15 min","10 mg/kg PO, MEAN, N=6",15.17 Nos.
same,"Scratching bouts (Nos.) In 30 min, 15-20 min","10 mg/kg PO, MEAN, N=6",12.50 Nos.
same,"Scratching bouts (Nos.) In 30 min, 20-25min","10 mg/kg PO, MEAN, N=6",13.67 Nos.
same,"Scratching bouts (Nos.) In 30 min, 25-30 min","10 mg/kg PO, MEAN, N=6",15.17 Nos.
same,Total Scratching bouts,"10 mg/kg PO, MEAN, N=6",63.17 (Nos.)/30 min
same,"Scratching bouts (Nos.) In 30 min, 0-5 min",[2],0 Nos. (4×) and 1 Nos. and 2 Nos.
same,"Scratching bouts (Nos.) In 30 min, 5-10 min",[2],7 Nos. (2×) and 0 Nos. (2×) and 22 Nos. and 1 Nos.
same,"Scratching bouts (Nos.) In 30 min, 10-15 min",[2],41 Nos. and 11 Nos. and 7 Nos. and 19 Nos. and 0 Nos. and 13 Nos.
same,"Scratching bouts (Nos.) In 30 min, 15-20 min",[2],9 Nos. and 0 Nos. (2×) and 22 Nos. and 25 Nos. and 19 Nos.
same,"Scratching bouts (Nos.) In 30 min, 20-25min",[2],0 Nos. (2×) and 10 Nos. and 20 Nos. and 19 Nos. and 33 Nos.
same,"Scratching bouts (Nos.) In 30 min, 25-30 min",[2],23 Nos. and 37 Nos. and 24 Nos. and 0 Nos. (2×) and 7 Nos.
same,Total Scratching bouts,[2],80 (Nos.)/30 min and 65 (Nos.)/30 min and 73 (Nos.)/30 min and 85 (Nos.)/30 min and 61 (Nos.)/30 min and 15 (Nos.)/30 min
same,"Scratching bouts (Nos.) In 30 min, 0-5 min","30 mg/kg PO, MEAN, N=6",5.17 Nos.
same,"Scratching bouts (Nos.) In 30 min, 5-10 min","30 mg/kg PO, MEAN, N=6",11.67 Nos.
same,"Scratching bouts (Nos.) In 30 min, 10-15 min","30 mg/kg PO, MEAN, N=6",7.17 Nos.
same,"Scratching bouts (Nos.) In 30 min, 15-20 min","30 mg/kg PO, MEAN, N=6",18.33 Nos.
same,"Scratching bouts (Nos.) In 30 min, 20-25min","30 mg/kg PO, MEAN, N=6",6.17 Nos.
same,"Scratching bouts (Nos.) In 30 min, 25-30 min","30 mg/kg PO, MEAN, N=6",2.83 Nos.
same,Total Scratching bouts,"30 mg/kg PO, MEAN, N=6",51.33 (Nos.)/30 min
same,"Scratching bouts (Nos.) In 30 min, 0-5 min",[3],0 Nos. (3×) and 1 Nos. and 20 Nos. and 10 Nos.
same,"Scratching bouts (Nos.) In 30 min, 5-10 min",[3],9 Nos. and 15 Nos. and 0 Nos. (2×) and 1 Nos. and 45 Nos.
same,"Scratching bouts (Nos.) In 30 min, 10-15 min",[3],8 Nos. and 1 Nos. and 22 Nos. and 3 Nos. and 9 Nos. and 0 Nos.
same,"Scratching bouts (Nos.) In 30 min, 15-20 min",[3],29 Nos. and 0 Nos. and 11 Nos. and 10 Nos. and 47 Nos. and 13 Nos.
same,"Scratching bouts (Nos.) In 30 min, 20-25min",[3],5 Nos. and 0 Nos. (3×) and 16 Nos. (2×)
same,"Scratching bouts (Nos.) In 30 min, 25-30 min",[3],0 Nos. (4×) and 12 Nos. and 5 Nos.
same,Total Scratching bouts,[3],51 (Nos.)/30 min and 29 (Nos.)/30 min and 69 (Nos.)/30 min and 18 (Nos.)/30 min and 57 (Nos.)/30 min and 84 (Nos.)/30 min
same,"scratching bouts compared to vehicle treatment, significance","at 1, 3, 10 and 30 mg/kg doses",Statistically significant decrease
same,"total number of scratching bouts, dose response","quantified for 30 minutes post CQ injection, 0.3-30 mg/kg PO",dose dependent decrease
